We go through ten molecules from patent US5972958A, “4-aminoalkoxy-1,3-dihydro-benzoimidazol-2-thiones” (American Home Products Corporation, priority 1998, dated 1999).

The structures appear in SMILES notation.

Assay [1] has as its target T1, dopamine D2 receptor (Rattus norvegicus, UniProt P61169). The assay can be described thus: Affinity for the dopamine D-2 receptor, 3H-spiroperidol (D2 Spiper) binding in homogenized limbic brain tissue. Also noted: homogenized limbic brain tissue; from tissue; host or cells: limbic brain tissue (homogenate). The note with it: low-affinity agonist state. How it is done: High affinity for the dopamine D-2 receptor was established by the standard experimental test procedure of Fields, et al., Brain Res., 136, 578 (1977) and Yamamura et al., eds., Neurotransmitter Receptor Binding, Raven Press, N.Y. (1978) wherein homogenized limbic brain tissue is incubated with ^3 H-spiroperidol (Spiper.) and various concentrations of test compound, filtered and washed and shaken with Hydrofluor scintillation cocktail (National Diagnostics) and counted in a Packard 460 CD scintillation counter.

For assay [2], the target named is T1, dopamine D2 receptor. The assay can be described thus: Affinity for the dopamine autoreceptor, 3H-quinpirole (D2 Quin.) binding in homogenized rat striatal brain tissue. Also noted: homogenized rat striatal brain tissue; from tissue; host or cells: rat striatal brain tissue (homogenate). To be noted: high-affinity agonist state. On the procedure:
Affinity for the dopamine autoreceptor was established by a modification of the standard experimental test procedure of Seemen and Schaus, European Journal of Pharmacology 203: 105-109, 1991, wherein homogenized rat striatal brain tissue is incubated with ^3 H-quinpirole (Quin.) and various concentrations of test compound, filtered and washed and counted in a Betaplate scintillation counter.

T1 sequence (P61169 whole entry): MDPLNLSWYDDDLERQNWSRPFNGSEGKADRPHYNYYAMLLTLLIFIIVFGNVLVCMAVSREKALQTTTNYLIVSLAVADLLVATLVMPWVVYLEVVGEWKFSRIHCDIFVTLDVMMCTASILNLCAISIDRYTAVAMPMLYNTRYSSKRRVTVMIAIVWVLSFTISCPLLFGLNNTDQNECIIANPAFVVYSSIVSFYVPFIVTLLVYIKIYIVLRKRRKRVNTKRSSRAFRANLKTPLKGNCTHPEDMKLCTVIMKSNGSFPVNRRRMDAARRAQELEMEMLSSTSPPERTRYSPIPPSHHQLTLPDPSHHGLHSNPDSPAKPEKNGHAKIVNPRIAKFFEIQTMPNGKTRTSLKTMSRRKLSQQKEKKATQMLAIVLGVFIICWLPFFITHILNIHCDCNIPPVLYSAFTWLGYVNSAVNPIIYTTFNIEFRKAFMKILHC

In the case of `S=c1[nH]c2cc(Cl)cc(OCCNCc3ccsc3)c2[nH]1` [Example 9, 6-Chloro-4-{2-[(thiophen-3-ylmethyl)-amino]-ethoxy}-1,3-dihydro-benzoimidazole-2-thione], the 50% inhibitory concentration (IC50) (usually the midpoint of a concentration-inhibition curve) worked out at 85 nM at dopamine D2 receptor [1] and 0.18 nM at dopamine D2 receptor [2].
On the same counts, the results for `Cc1ccc(CNCCOc2cccc3[nH]c(=S)[nH]c23)cc1` [Example 2, 4-[2-(4-Methyl-benzylamino)-ethoxy]-1,3-dihydro-benzoimidazole-2-thione] are 37.7 nM and 0.42 nM.
On the same counts, the results for `S=c1[nH]c2cccc(OCCCNCc3ccccc3)c2[nH]1` [Example 3] are 1190 nM and 14.9 nM.
Consider `S=c1[nH]c2cc(Cl)cc(OCCNCc3cccs3)c2[nH]1` [Example 8, 6-Chloro-4-{2-[(thiophen-2-ylmethyl)-amino]-ethoxy}-1,3-dihydro-benzoimidazole-2-thione], for which the half-inhibitory concentration (IC50) was found to be 88 nM at dopamine D2 receptor [1] and 0.37 nM on dopamine D2 receptor [2].
On the same counts, the results for `S=c1[nH]c2cccc(OCCNCc3cccc4ccccc34)c2[nH]1` [Example 4, 4-{2-[(Naphthalen-1-ylmethyl)-amino]-ethoxy}-1,3-dihydro-benzoimidazole-2-thione] are 36.9 nM and 0.43 nM.
The corresponding values for `S=c1[nH]c2cccc(OCCN3CCc4ccccc4C3)c2[nH]1` [Example 10, 4-[2-(3,4-Dihydro-1H-isoquinolin-2-yl)-ethoxy]-1,3-dihydro-benzoimidazole-2-thione] are 234 nM and 2.67 nM.
On the same counts, the results for `S=c1[nH]c2cccc(OCCNCc3ccc(Cl)cc3)c2[nH]1` [Example 6, 4-[2-(4-Chloro-benzylamino)-ethoxy]-1,3-dihydro-benzoimidazole-2-thione] are 88 nM and 0.21 nM.
`Sc1nc2c(OCCNCc3ccccc3)cc(Cl)cc2[nH]1` [Example 7, 4-(2-Benzylamino-ethoxy)-6-chloro-1,3-dihydro-benzoimidazole-2-thione]: the IC50 on dopamine D2 receptor [1] came to 57 nM; at dopamine D2 receptor [2], 0.39 nM.
On to `S=c1[nH]c2cccc(OCCNCc3ccccc3)c2[nH]1` [Example 1, 4-(2-Benzylamino-ethoxy)-1,3-dihydro-benzoimidazol-2-thione], for which the IC50 on dopamine D2 receptor [1] was 33.4 nM; on dopamine D2 receptor [2], 0.36 nM.
On the same counts, the results for `CC(C)(C)c1ccc(CNCCOc2cccc3[nH]c(=S)[nH]c23)cc1` [Example 5, 4-[2-(4-tert-Butyl-benzylamino)-ethoxy]-1,3-dihydro-benzoimidazole-2-thione] are 6.87 nM and 0.82 nM.
